Laboratory results: patent US8734788B2, “Composition and method for treatment of reperfusion injury and tissue damage” (OPSONA Therapeutics Ltd, priority 2007, dated 2014)
Entries after “also recorded” stand apart in the source; their conditions may differ.

Experiments:
[1] = system: IL-1 production in LPS-stimulated human peripheral blood monocytes; conditions: cited from earlier work
[2] = system: myocardial ischemia/reperfusion (I/R) injury in C57BL6 mice; experiment: Infarct size after myocardial ischemia/reperfusion in mice (Evans blue/TTC staining); format: in vivo; conditions: for effect on infarct size (in words): administered 5 minutes prior to reperfusion, versus saline/PBS
Procedure: Male C57BL6 mice (8-12 weeks old, 25-30 grams of weight) underwent 30 minutes of ischemia followed by 24 hours of reperfusion.
Experimental compounds were administered 5 minutes prior to reperfusion via the tail vein. […] OPN-301 (OPN301) is a murine IgG1 anti-TLR2 antibody (mouse Toll-like Receptor 2 (TLR2) antibody, clone T2.5, HyCult Biotechnology b.v., Cell Sciences, Canton, USA: catalogue number 1054).
Mice were anesthetized with a mixture of […]™ (N-(1-phenethyl-4-piperidyl)-N-phenyl-propanamide) 0.05 mg/kg, DORMICUM™ (Midazolum, 8-chloro-6-(2-fluorophenyl)-1-methyl-4H-imidazo[1,5-a][1,4]benzodiazepine) 5 mg/kg and DOMITOR™ (medetomidine hydrochlorine) 0.5 mg/kg (intraperitoneal injection). Atropine ((8-methyl-8-azabicyclo[3.2.1]oct-3-yl) 3-hydroxy-2-phenylpropanoate) 0.05 mg/kg was subcutaneously administered before coronary ligation. Core body temperature was maintained between 36° C. and 37.5° C. during surgery by continuous monitoring with a rectal thermometer and automatic heating blanket. Mice were […] and ventilated (Harvard Apparatus Inc.) with 100% oxygen. The left anterior descending (LAD) coronary artery was ligated using an 8-0 vicryl suture with a section of polyethylene-10 tubing placed over the LAD.
Ischemia was confirmed by bleaching of the myocardium. Reperfusion was initiated by releasing the ligature and removing the polyethylene-10 tubing. Reperfusion of the endangered myocardium is characterized by typical hyperaemia in the first few minutes. A piece of the loosened suture was left in place in order to determine ischemic area. The chest wall was closed and the animals received subcutaneously […]™ (atipamezole hydrochloride, a sedation reversal agent for DOMITOR™ (medetomidine hydrochlorine)) 2.5 mg/kg, ANEXATE™ (Flumazenil (also known as flumazepil)) 0.5 mg/kg and […]™ (buprenorphine) 0.1 mg/kg.
Infarct Size (IS) is expressed as a percentage of the Area-At-Risk (AAR) and total Left Ventricle (LV). The ratio of AAR/LV is a measure for the extent of myocardial tissue that underwent ischemia and reperfusion (i.e. endangered area). The ratio IS/AAR is an accurate measurement to determine infarct size within endangered myocardium and is the primary endpoint from which the efficacy of treatment is addressed. The secondary endpoint IS/LV ratio is the percentage infarcted area within the total left ventricular wall.
To determine the AAR, the LAD was ligated once again (at the level marked by the suture left in place) and 4% Evans blue dye was injected via the thoracic aorta in a retrograde fashion. Hearts were rapidly explanted, rinsed in 0.9% saline and wrapped in a clear food wrap and frozen at −20° C. for 1 hour. Hearts were then mechanically sliced into five 1 mm cross sections. Heart sections were incubated in 1% triphenyltetrazolium chloride (Sigma-Aldrich) at 37° C. for 15 minutes before placing them in formaldehyde for another 15 minutes. Viable tissue stained red and infarcted tissue appeared white. Heart sections were digitally photographed (CANON EOS 400D) under a microscope (CARL ZEISS™). IS, MR and total LV area were measured using ImageJ software (version 1.34).
All data are expressed as Mean±SD. After skewness±SD and kurtosis±SD confirmed normality, a one-way ANOVA with Bonferroni adjustment (Table 2) and a Dunnett's T test (2 sided) (Table 4). was used to test differences between groups. Kolmogorov-Smirnov test performed if abnormal distribution was suspected (i.e. when kurtosis and skewness values are twice their standard deviations). All statistical analyses were performed using SPSS version 13.0 for Windows (SPSS, Chicago, USA) and p<0.05 was considered significant.

[3] = Table 1, 30 min ischemia/24 h reperfusion, i.v. 5 min prior to reperfusion, mAb and IgG 10 mg/kg, SB239063 0.5 mg/kg, n=10
[4] = Table 2, Bonferroni, (J) group IgG isotype
[5] = Table 2, Bonferroni, (J) group PBS
[6] = Table 2, Bonferroni, (J) group exp. mAB
[7] = Table 3 (amended, saline control set), 30 min ischemia/24 h reperfusion, n=10
[8] = Table 5, Dunnett, (J) group Saline

trans-1-(4-Hydroxycyclohexyl)-4-(fluorophenyl)-5-(2-methoxypyrimidin-4-yl) imidazole [SB239063]
IC50 [1]: 0.12 µM
IS_AAR (infarct size as percentage of Area At Risk), Mean [2, 3]: 31.4000%
IS_LV (infarct size as percentage of total Left Ventricle), Mean [2, 3]: 12.0100%
IS_AAR Mean Difference (I-J) [2, 4]: .25400
IS_LV Mean Difference (I-J) [2, 4]: −.85200
IS_AAR Mean Difference (I-J) [2, 5]: −4.185
IS_LV Mean Difference (I-J) [2, 5]: −5.3
IS_AAR Mean Difference (I-J) [2, 6]: 13.51(*)
IS_LV Mean Difference (I-J) [2, 6]: 5.908(*)
IS/AAR Mean [2, 7]: 31.7250%
IS/LV Mean [2, 7]: 12.3220%
IS_AAR Mean Difference (I-J) ([2]; Table 4, Dunnett, (J) group Saline, n=10 groups): −2.776
IS_AAR Mean Difference (I-J) [2, 8]: −2.776
IS_LV Mean Difference (I-J) [2, 8]: −1.74
effect on infarct size (in words) [2]: did not reduce infarct size
effect on infarct size (in words) ([2]; listed as p38 inhibitor): no reduction of infarct size; also recorded: no difference in infarct size
difference in mean IS/LV ([2]; versus PBS treated mice, not statistically significant (FIG. 7)): −26%
